Source: patent publication US11485736B2 (KSQ Therapeutics, Inc., priority 2018, dated 2022)

Target: USP1/UAF1 (Homo sapiens (Human), UniProt O94782)
Assay: Deubiquitination assay for USP1/UAF1 activity (ubiquitin-rhodamine 110)
Assay type: biochemical
Settings: 0.05 nM USP1/UAF1, 150 nM ubiquitin-rhodamine
Protocol: Certain Compounds of the Disclosure were assessed for USP1/UAF1 activity in a Ubiquitin Rhodamine assay modified from those described previously.
Deubiquitinase activity was measured using ubiquitin-rhodamine 110 as a substrate. Cleavage of the amide bond between rhodamine and the c-terminal glycine of ubiquitin yields an increase in fluorescence signal. The assay was conducted in 20 ul total volume of assay buffer (50 mM Tris-HCl, pH 7.8, 0.5 mM EDTA, 0.01% Bovine Serum Albumin, 1 mM DTT, 0.01% Tween-20), and 0.05 nM USP1/UAF1 enzyme.
Compounds, dissolved in DMSO were tested in dose response format, beginning at 10 uM.
Compounds depicted below were added to enzyme/assay buffer mix and incubated 10 min.
Data for all assay formats was calculated as percent inhibition compared with control wells. […] IC50 values were calculated using the standard four parameter curve fitting algorithm in either Prism GraphPad (La Jolla, Calif.) software, or Collaborative Drug Discovery (Burlingame, Calif.) CDD Vault.

Sequence of USP1/UAF1 (O94782 whole entry): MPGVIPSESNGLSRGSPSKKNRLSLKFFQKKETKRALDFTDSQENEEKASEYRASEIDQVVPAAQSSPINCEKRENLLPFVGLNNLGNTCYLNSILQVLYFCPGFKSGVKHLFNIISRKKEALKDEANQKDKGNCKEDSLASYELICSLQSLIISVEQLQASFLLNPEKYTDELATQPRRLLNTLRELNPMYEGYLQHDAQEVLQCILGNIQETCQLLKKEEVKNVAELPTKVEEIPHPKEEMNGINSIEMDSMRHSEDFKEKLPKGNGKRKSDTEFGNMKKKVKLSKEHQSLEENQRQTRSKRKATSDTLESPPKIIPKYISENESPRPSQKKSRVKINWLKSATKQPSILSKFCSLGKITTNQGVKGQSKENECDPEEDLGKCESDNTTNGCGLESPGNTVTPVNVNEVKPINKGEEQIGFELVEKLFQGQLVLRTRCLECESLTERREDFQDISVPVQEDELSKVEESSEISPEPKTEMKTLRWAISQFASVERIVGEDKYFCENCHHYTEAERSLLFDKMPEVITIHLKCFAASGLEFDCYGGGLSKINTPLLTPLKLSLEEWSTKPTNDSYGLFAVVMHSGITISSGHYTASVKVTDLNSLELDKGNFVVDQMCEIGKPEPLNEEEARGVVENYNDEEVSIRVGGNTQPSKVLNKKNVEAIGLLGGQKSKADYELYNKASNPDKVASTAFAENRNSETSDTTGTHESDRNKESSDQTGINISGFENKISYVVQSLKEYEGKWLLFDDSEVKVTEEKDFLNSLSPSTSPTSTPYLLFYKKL
Sequence of USP1/UAF1 (Q8TAF3 whole entry partner): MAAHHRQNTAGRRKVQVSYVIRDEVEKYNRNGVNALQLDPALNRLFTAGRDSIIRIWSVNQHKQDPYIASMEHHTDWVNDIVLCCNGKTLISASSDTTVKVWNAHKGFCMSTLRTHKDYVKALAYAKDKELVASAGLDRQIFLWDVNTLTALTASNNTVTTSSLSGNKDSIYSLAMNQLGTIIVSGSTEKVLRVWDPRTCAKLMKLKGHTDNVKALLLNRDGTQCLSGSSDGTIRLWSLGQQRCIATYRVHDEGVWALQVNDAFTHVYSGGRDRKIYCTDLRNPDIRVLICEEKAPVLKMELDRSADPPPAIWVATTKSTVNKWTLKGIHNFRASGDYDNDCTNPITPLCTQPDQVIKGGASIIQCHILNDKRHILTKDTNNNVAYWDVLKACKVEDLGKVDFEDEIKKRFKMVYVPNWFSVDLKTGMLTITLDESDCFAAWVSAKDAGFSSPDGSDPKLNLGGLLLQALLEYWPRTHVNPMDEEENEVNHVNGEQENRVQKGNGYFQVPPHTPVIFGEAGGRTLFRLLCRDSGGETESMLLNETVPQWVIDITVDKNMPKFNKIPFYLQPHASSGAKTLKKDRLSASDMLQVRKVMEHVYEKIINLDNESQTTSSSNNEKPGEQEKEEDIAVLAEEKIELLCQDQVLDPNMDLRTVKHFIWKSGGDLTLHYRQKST

Structure (SMILES) | IC50 (Table 4) [µM] | IC50 (Table 3) [µM] | further results
CCOc1nn(Cc2ccc(-c3nc(C(F)(F)F)cn3CC)cc2)c2nc(-c3c(OC)ncnc3C3CC3)ncc12 [drawing 816] | 0.01 to 0.1 | – | –
Cc1nn(Cc2ccc(-c3nc(C(F)(F)F)cn3C)cc2)c2nc(-c3ccccc3C(C)C)ncc12 [drawing 729] | – | – | IC50 (Table 2): < 0.01 µM
COc1ncnc(C)c1-c1ncc2ncn(Cc3ccc(-n4nc(C(F)(F)F)cc4C)cc3)c2n1 | > 0.2 | – | –
COc1nc(C)c(-c2ncc3cnn(Cc4ccc(-c5nc(C(F)(F)F)cn5C)cc4)c3n2)c(OC)n1 [drawing 793] | – | > 0.2 | –
CCn1cc(C(F)(F)F)nc1-c1ccc([C@@H](C)n2ncc3cnc(-c4c(OC)ncnc4C4CC4)nc32)cc1 (single isomer, unassigned) [drawing 747] | – | 0.01 to 0.1 | –
COc1ncnc(C2CC2)c1-c1ncc2ccn(Cc3ccc(-c4nc(C(F)(F)F)cn4C)cc3)c2n1 [drawing 826] | 0.01 to 0.1 | – | –
Cn1cc(C(F)(F)F)nc1-c1ccc(Cn2ncc3cnc(-c4c(OC5CCOC5)ncnc4C4CC4)nc32)cc1 (stereo not drawn) | – | 0.1 to 0.2 | –
COc1ncnc(C2CC2)c1-c1ncc2cnn(Cc3ccc(-c4cn(C)c(C(F)(F)F)n4)cc3)c2n1 [drawing 736] | – | 0.01 to 0.1 | –
Cc1cnn(C(C)C)c1-c1ncc2cnn(Cc3ccc(-n4nc(C(F)(F)F)cc4C)cc3)c2n1 [drawing 734] | – | < 0.01 | –
CC(C)Oc1ncnc(C2CC2)c1-c1ncc2cnn(Cc3ccc(-c4nc(C(F)(F)F)cn4C)cc3)c2n1 [drawing 756] | – | 0.01 to 0.1 | –
CN(C)c1ncnc(C2CC2)c1-c1ncc2cnn(Cc3ccc(-c4nc(C(F)(F)F)cn4C)cc3)c2n1 | – | > 0.2 | –
COc1ncnc(C2CC2)c1-c1ncc2cnn(Cc3ccc(-c4nc(C(F)(F)F)cn4CCF)cc3)c2n1 [drawing 764] | – | 0.01 to 0.1 | –
CCn1cc(C(F)(F)F)nc1-c1ccc(Cn2ncc3cnc(-c4c(OCCF)ncnc4C4CC4)nc32)cc1 [drawing 741] | – | 0.01 to 0.1 | –
COc1ncnc(C2CC2)c1-c1ncc2cnn(Cc3ccc(-c4nc(C(F)(F)F)cn4C4CCC4)cc3)c2n1 [drawing 732] | – | < 0.01 | –
COc1ncnc(C2CC2)c1-c1ncc2nc(C3CCC3)n(Cc3ccc(-n4nc(C(F)(F)F)cc4C)cc3)c2n1 [drawing 823] | 0.01 to 0.1 | – | –
CCn1cc(C(F)(F)F)nc1-c1ccc([C@H](C)n2ncc3cnc(-c4c(OC)ncnc4C4CCC4)nc32)cc1 (single isomer, unassigned) [drawing 748] | – | 0.01 to 0.1 | –
CSc1cccc(C)c1-c1ncc2cnn(Cc3ccc(-c4nc(C(F)(F)F)cn4C)cc3)c2n1 [drawing 722] | – | – | IC50 (Table 2): 0.01 to 0.1 µM
CCOc1ncnc(C2CC2)c1-c1ncc2c(OCC)nn(Cc3ccc(-c4nc(C(F)(F)F)cn4CC)cc3)c2n1 [drawing 815] | 0.01 to 0.1 | – | –
CCn1cc(C(F)(F)F)nc1-c1ccc([C@@H](C)n2ncc3cnc(-c4c(OC)ncnc4C4CCC4)nc32)cc1 (single isomer, unassigned) [drawing 742] | – | 0.01 to 0.1 | –
COc1ncnc(C2CC2)c1-c1ncc2cnn(Cc3ccc(-c4nc(C(F)(F)F)cn4CC(=O)N(C)C)cc3)c2n1 | – | > 0.2 | –
Cn1cc(C(F)(F)F)nc1-c1ccc(Cn2ncc3cnc(-c4c(OCc5ccccc5)ncnc4C4CC4)nc32)cc1 | – | > 0.2 | –
COc1nccc(C)c1-c1ncc2cnn(Cc3ccc(-c4nc(C(F)(F)F)cn4C)cc3)c2n1 [drawing 711] | – | – | IC50 (Table 2): 0.01 to 0.1 µM
CCn1cc(C(F)(F)F)nc1-c1ccc(Cn2nc(OC)c3cnc(-c4c(OC)ncnc4C4CC4)nc32)cc1 [drawing 820] | 0.01 to 0.1 | – | –
COc1ncnc(C2CC2)c1-c1ncc2c(OC)nn(Cc3ccc(-c4cn(C(C)C)c(C(F)(F)F)n4)cc3)c2n1 [drawing 807] | 0.01 to 0.1 | – | –
Cc1cccc(S(C)(=O)=O)c1-c1ncc2cnn(Cc3ccc(-c4nc(C(F)(F)F)cn4C)cc3)c2n1 | – | – | IC50 (Table 2): 0.1 to 0.2 µM
COc1ncnc(C2CC2)c1-c1ncc2c(OC)nn(C(C)c3ccc(-c4nc(C(F)(F)F)cn4CCF)cc3)c2n1 (stereo not drawn) [drawing 812] | 0.01 to 0.1 | – | –

Structure (SMILES) | IC50 (Table 4) [µM] | IC50 (Table 3) [µM] | further results
COc1ncnc(C2CC2)c1-c1ncc2nc(C(C)C)n(Cc3ccc(-c4nc(C(F)(F)F)cn4C(C)C)cc3)c2n1 [drawing 805] | 0.01 to 0.1 | – | –
CCS(=O)(=O)c1ccccc1-c1ncc2cnn(Cc3ccc(-c4nc(C(F)(F)F)cn4C)cc3)c2n1 [drawing 709] | – | – | IC50 (Table 2): 0.1 to 0.2 µM
COc1cccc(C2CC2)c1-c1ncc2cnn(Cc3ccc(-c4nc(C(F)(F)F)cn4C)cc3)c2n1 [drawing 724] | – | – | IC50 (Table 2): < 0.01 µM
COc1ncnc(C2CC2)c1-c1ncc2ncn(Cc3ccc(-c4nc(C(F)(F)F)cn4C(C)C)cc3)c2n1 [drawing 818] | 0.01 to 0.1 | – | –
Cc1ncnc(C(C)C)c1-c1ncc2cnn(Cc3ccc(-n4nc(C(F)(F)F)cc4C)cc3)c2n1 [drawing 776] | – | 0.01 to 0.1 | –
Cc1cc(C(F)(F)F)nn1-c1ccc(Cn2ncc3cnc(-c4ccccc4C(C)C)nc32)cc1 [drawing 716] | – | – | IC50 (Table 2): 0.01 to 0.1 µM
CCc1nc2cnc(-c3c(OC)ncnc3C3CC3)nc2n1Cc1ccc(-c2nc(C(F)(F)F)cn2C(C)C)cc1 [drawing 808] | 0.01 to 0.1 | – | –
CCn1cc(C(F)(F)F)nc1-c1ccc(Cn2ncc3cnc(-c4c(OC)ncnc4C4CC4)nc32)cn1 [drawing 767] | – | 0.01 to 0.1 | –
COc1ncnc(C2CC2)c1-c1ncc2cnn([C@H](C)c3ccc(-c4nc(C(F)(F)F)cn4C)cc3)c2n1 (single isomer, unassigned) [drawing 759] | – | 0.01 to 0.1 | –
COc1ncnc(C2CC2)c1-c1ncc2c(OC)nn([C@@H](C)c3ccc(-c4nc(C(F)(F)F)cn4CCF)cc3)c2n1 [drawing 809] | 0.01 to 0.1 | – | –
COc1ncnc(C2CC2)c1-c1ncc2cnn(Cc3ccc(-n4nc(C#N)cc4C)cc3)c2n1 | – | 0.01 to 0.1 | –
COc1ncnc(C2CC2)c1-c1ncc2nnn(Cc3ccc(-c4nc(C(F)(F)F)cn4C)cc3)c2n1 [drawing 828] | 0.01 to 0.1 | – | –
CCn1cc(C(F)(F)F)nc1-c1ccc(Cn2ncc3cnc(-c4c(OC)ncnc4C4CC4)nc32)cc1 [drawing 738] | – | 0.01 to 0.1 | –
COc1cccc(OC)c1-c1ncc2cnn(Cc3ccc(-c4nc(C(F)(F)F)cn4C)cc3)c2n1 [drawing 714] | – | – | IC50 (Table 2): 0.01 to 0.1 µM
CC(C)c1ccccc1-c1ncc2ncn(Cc3ccc(-c4nc(C(F)(F)F)cn4C)cc3)c2n1 [drawing 719] | – | – | IC50 (Table 2): 0.01 to 0.1 µM
COc1ncnc(C2CC2)c1-c1ncc2nc(C(C)C)n(Cc3ccc(-n4nc(C(F)(F)F)cc4C)cc3)c2n1 [drawing 824] | 0.1 to 0.2 | – | –
CC(C)c1ccccc1-c1ncc2ncn(Cc3ccc(-c4nc(C(F)(F)F)cn4C)cc3)c2n1 [drawing 832] | 0.01 to 0.1 | – | –
CCn1cc(C(F)(F)F)nc1-c1ccc(Cn2nc(N3CCC3)c3cnc(-c4c(OC)ncnc4C4CC4)nc32)cc1 [drawing 810] | 0.01 to 0.1 | – | –
COc1ncnc(C2CC2)c1-c1ncc2cnn(Cc3ccc(-n4nc(C(F)F)cc4C)cc3)c2n1 [drawing 762] | – | 0.01 to 0.1 | –
COc1ncnc(OC)c1-c1ncc2cnn(Cc3ccc(-c4nc(C(F)(F)F)cn4C)cc3)c2n1 [drawing 766] | – | 0.01 to 0.1 | –
[2H]C([2H])([2H])n1cc(C(F)(F)F)nc1-c1ccc(Cn2ncc3cnc(-c4c(OC)ncnc4C4CC4)nc32)cc1 | – | 0.01 to 0.1 | –
Cc1cc(C(F)F)nn1-c1ccc(Cn2ncc3cnc(-c4cccnc4C(C)C)nc32)cc1 [drawing 710] | – | – | IC50 (Table 2): 0.01 to 0.1 µM
COCCOc1ncnc(C2CC2)c1-c1ncc2cnn(Cc3ccc(-c4nc(C(F)(F)F)cn4C)cc3)c2n1 [drawing 787] | – | > 0.2 | –
CC(C)c1c(F)cccc1-c1ncc2cnn(Cc3ccc(-c4nc(C(F)(F)F)cn4C)cc3)c2n1 [drawing 728] | – | – | IC50 (Table 2): < 0.01 µM
COc1ncnc(C2CC2)c1-c1ncc2cnn(Cc3ccc(-c4nc(C(F)(F)F)cn4C4CC4)cc3)c2n1 [drawing 739] | – | 0.01 to 0.1 | –
